Measured values: US7067700B2, “Process for preparing sertraline hydrochloride polymorphic form II” (Fermion Oy, priority 2001, dated 2006)
Where a name gives a salt, the structure may show the parent alone.

Legend:
[1] = stability of sertraline hydrochloride polymorphic forms; assay type: physicochemical; conditions: statement in words
[2] = dissolution / solubility of sertraline hydrochloride polymorphic forms; assay type: physicochemical; conditions: comparison of polymorphic forms; statement in words
[3] = claimed in the cited patent; cited from earlier work
[4] = claimed in the cited patent; cited from earlier work; remark: listed apart in the source

Structure (SMILES) | stability of the polymorph ([1]; form II prepared by the method described, no test described) | dissolution properties [2] | stability of the polymorph (comparison of forms) ([1]; compared with form II) | stability as claimed in U.S. Pat. No. 5,734,083 [3] | solubility in aqueous fluids as claimed in U.S. Pat. No. 5,734,083 [4]
CNC1CCC(c2ccc(Cl)c(Cl)c2)c2ccccc21 (stereo not drawn) [(1S-cis)-4-(3,4-dichlorophenyl)-1,2,3,4-tetrahydro-N-methyl-1-naphtalenamine hydrochloride] | stable | – | – | – | –
CN[C@H]1CC[C@@H](c2ccc(Cl)c(Cl)c2)c2ccccc21.Cl [Form I] | – | poor dissolution properties | more stable | – | –
CN[C@H]1CC[C@@H](c2ccc(Cl)c(Cl)c2)c2ccccc21.Cl [Polymorphic form T1] | – | dissolves better than forms I and II | – | acceptable stable | enhanced solubility
